Reference: patent publication US11820762B2, “Compounds as potential therapeutic agents targeting various neurodegenerative diseases” (The Hong Kong University of Science and Technology, priority 2020, dated 2023)

Assays:
[1] = test system: differentiated HT22 cells; assay: cells; format: cell-based; conditions: for EC50: Mus musculus, HT-22, differentiated HT22 cells pre-treated with 5 mM L-glutamate, cell viability; for neuroprotective activity compared with cA: comparison of analogs
Description: Cytotoxicity of compounds was tested by MTT assay. Cells were grown in DMEM (Gibco) with 10% FBS and 1% penicillin-streptomycin at 37° C. with 5% CO2. In total, 5×10^3 cells were seeded in each well of 96-well plates and cultured for 24 hours. Then cells were treated with different concentrations of compounds dissolved in DMSO for another 24 hours. After incubating with 20 μl of MTT (5 mg/mL) for each well at 37° C. for another four hours, 100 μl of DMSO was added to dissolve formazan. Absorbance was measured using a Multiskan™ FC microplate photometer at 570 nm. IC50 data were analyzed with GraphPad Prism software.
Cultured HT22 cells were differentiated by applying 10 μM retinoic acid (Sigma-Aldrich, R2625-50MG) and 500 μM cAMP (Sigma-Aldrich, A6885) in DEME medium supplied with 0.5% FBS (differentiation medium) and incubated 48 hours before adding other treatments. 5 mM L-glutamate acid was applied to the original differentiation medium for further 24-hours incubation. Cell viability was measured by MTT assay described above.
In the C9orf72 associated ALS/FTD, the G4C2 HRE make motor neurons more vulnerable to aberrant neuron excitation^43. Meanwhile, the hyperactivation of glutamate receptors drives a toxic level of neuronal activity, promoting the non-ATG (RAN) translation of G4C2 repeat-associated DPR proteins^44, leading to further toxicity of motor neurons. Thus, we would like to test our compounds in a glutamate (E)-induced excitotoxicity cell model.

RRM domain of hnRNP H = target: T1, RRM domain of hnRNP H (Homo sapiens, UniProt P31943); assay: 1H-15N HSQC NMR titration of hnRNP H RRM domain; format: binding; conditions: ratios 1:5 and 1:10
T1 construct: HSQC spectra of RRM1/2 of hnRNP H; hexahistidine (cleaved yes); made in house; host or cells: Escherichia coli BL21(DE3), pET-28a(+)
T1 sequence (P31943 1-194 limits assumed): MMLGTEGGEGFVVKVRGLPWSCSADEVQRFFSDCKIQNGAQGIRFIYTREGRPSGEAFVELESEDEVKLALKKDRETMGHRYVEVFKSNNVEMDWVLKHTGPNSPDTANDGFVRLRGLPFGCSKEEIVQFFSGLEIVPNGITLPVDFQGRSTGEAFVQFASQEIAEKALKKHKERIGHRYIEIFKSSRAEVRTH
Description: The coding sequence of the RRM domain of hnRNP H/F, or human Orc6 was inserted into the expression vector pET-28a(+) (Novagen). Protein was expressed in Escherichia coli BL21(DE3) at 37° C. for 5 hours. Cell lysates were subject to affinity purification with nickel-nitrilotriacetic acid resin (Qiagen) followed by cleavage of hexahistidine tag with Protease 3C enzyme. Products were further purified on a Superdex 75 column (GE Healthcare). For NMR studies, uniformly ^15N labeled protein was expressed and purified as described above, except for cells grown in M9 medium containing 100% ^15N enriched ammonium chloride (Cambridge Isotopes) and d-glucose.
Titration experiments were performed by recording a series of 2D ^15N-HSQC spectra on uniformly ^15N-labeled RRM domain (˜0.1 mM) in the presence of different amounts of DNA/RNA or compounds at 25° C. Protein samples and stock solutions of DNA/RNA were all prepared in 20 mM potassium phosphate buffer and 70 mM KCl, pH 7.0, 10% D2O. All compounds were dissolved in isotope-labeled d6-DMSO (Sigma-Aldrich) at about 50 mM concentration, working as stock solutions. To avoid chemical shift changes of protein samples resulted from d6-DMSO addition, 10 μL d6-DMSO was added into 500 μL of 0.1 mM protein solution in the NMR buffer (20 mM potassium phosphate buffer and 70 mM KCl, pH 7.0, 10% D2O) and then the 2D HSQC was recorded as a reference.
In this scenario, specific RNA-binding proteins (RBPs), like hnRNP H, are recruited by the RNA foci, resulting in RNA processing impairment and further cytotoxicity to the central nervous system^30,36,37. Therefore, we tested the binding possibility of cA with the RRM domain of hnRNP H by NMR titration. […] Intriguingly, the DNA (G4C2)4 (SEQ ID NO: 5) G4 was also shown a potent binding affinity to the RRM domain of hnRNP H (FIG. 4C).

[2] = test system: DNA (G4C2)4 (SEQ ID NO: 5) G4; assay: 1D 1H-NMR titration of DNA (G4C2)4 G4; format: binding; conditions: for binding to DNA (G4C2)4 G4 by NMR titration: G4:compound ratio 1:1 to 1:10
Description: (§1) Single […] were purchased from Integrated DNA Technologies (IDT) and Takara. Single-strand DNA/RNA sample at 100 μM was then annealed by heating up to 95° C. for 15 mins, and slowly cooled to room temperature in the annealing buffer (70 mM KCl, 20 mM potassium phosphate (pH 7.0)) for overnight. The final NMR samples contained 0.1 mM DNA or RNA in 70 mM KCl and 20 mM potassium phosphate buffer (pH 7.0).
(§2) The 1D ^1H-NMR spectra were performed at 25° C. All compounds were dissolved in isotope-labeled d6-DMSO (Sigma-Aldrich) at about 50 mM concentration, working as stock solutions. To avoid chemical shift changes of DNA/RNA G4 resulted from d6-DMSO addition, […] d6-DMSO was added into 500 μL of 0.1 mM DNA/RNA G4 solution in the NMR buffer (20 mM potassium phosphate buffer and 70 mM KCl, pH 7.0, 10% D2O) and then 1D ^1H-NMR spectrum was recorded as a reference. During NMR titration experiments of adding each compound into the DNA/RNA G4 solution, the maximal volume of 10 μL of each compound in d6-DMSO solution was regarded as a final data point.
We next confirmed the binding of cA and DNA (G4C2)4 (SEQ ID NO: 5) G4 by NMR titration experiments.

[3] = test system: DNA (G4C2)2 (SEQ ID NO: 4) G4; assay: 1D 1H-NMR titration of DNA (G4C2)2 G4; format: binding; conditions: cA at 1:1, 1:5, 1:10
Description: as §1, §2
(§3) In addition to the four-repeat G4C2 DNA G4, there are parallel and hybrid G4 conformations formed simultaneously by the two-repeat G4C2 DNA^38,39. […]

[4] = test system: RNA (G4C2)2 (SEQ ID NO: 8) G4; assay: 1D 1H-NMR titration of RNA (G4C2)2 G4; format: binding; conditions: ratios 1:3, 1:5, 1:10
Description: as §1
as §2, with “point. […]” for “point.”

[5] = test system: human telomeric variant htel21_T18 G4; assay: 1D 1H-NMR titration of human telomeric variant htel21_T18 G4; format: binding; conditions: cA at 1:10
Description: as §1, §2, §3

[6] = Parallel artificial membrane permeability assay (PAMPA); format: in vitro ADME; conditions: 500 μM; 37° C., 18 hours
Description: 500 μL of 500 μM test compound and 200 μM Equilibrium Standards for each test compound were prepared. 5 μL DMSO plus 245 μL PBS served as blank control. Firstly, 300 μL PBS was added to each well in the acceptor plate. With the donor plate in its tray, 5 μL 4% Lecithin in Dodecane was added directly to the well membranes of the donor plate. 200 μL of each 500 μM test compound was added to duplicate wells of the donor plate. The donor plate was carefully placed into the acceptor plate wells and incubated at 37° C. for 18 hours. Then the liquid in acceptor plate wells was collected as Acceptor Solution for analysis. Absorbance spectrum from 200 nm to 500 nm in 10 nm intervals was read to determine the peak absorbance of test compounds and blank control.
In addition, we also tested the permeability on live cells. Neuro2a cells treated with cA at different concentrations (10 μg/ml, 20 μg/ml) for different incubation time (24 h, 48 h) were lysed. Supernatants of cell lysates were collected and analyzed by UPLC-MS. Meanwhile, cell media from different treatment groups were used as control. […] In contrast, the intensity of cA signal was the same in the three corresponding cell media groups (FIG. 25, 4-6).

Tau-R3 = target: T2, Tau-R3 (Homo sapiens, UniProt P10636); assay: Thioflavin T (ThT) fluorescent tau-R3 aggregation assay; format: biochemical; conditions: 20 μM Tau-R3, 10 μM heparin, read-out: IC50 of Tau-R3 aggregation inhibition (converted)
T2 construct: Tau-R3 protein was synthesized and purchased from ChinaPeptides Co., Ltd; purchased ChinaPeptides Co., Ltd; host or cells: chemical synthesis
T2 sequence (P10636 623-653 limits assumed): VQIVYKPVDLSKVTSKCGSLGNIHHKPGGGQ
Description: Tau-R3 protein was synthesized and purchased from ChinaPeptides Co., Ltd. ThT (ab120751, 1 mM) solution was freshly prepared in 50 mM Tris-HCl buffer (pH 7.4) and passed through a 0.45 μm pore size filter to remove insoluble particles before use. Tau-R3 (20 μM) was incubated with 20 μM ThT and 10 μM heparin in the presence or absence of cA, cB and cC. Samples in 200 μL were added to 96-well plates and incubated at 37° C. for 24-48 hours. ThT fluorescence intensity was recorded using a microplate reader with 440/480 nm excitation/emission filters at different time points. Non-linear regression analysis was performed to fit the boltzmann sigmoidal.
In the C9orf72 ALS/FTD, there is a strong genetic association between the microtubule-binding protein, tau and the G4C2 HRE. […] The co-expression of Tau and G4C2 repeats produces a synergistic deterioration of the neurodegeneration phenotype of ALS/FTD^46. Considering the tight correlation of Tau aggregation with the ALS/FTD pathogenesis, we tested our compounds in a non-cell-based Tau-R3 aggregation inhibition assay. […] Moreover, we conducted high magnification TEM imaging to characterize the morphological changes of Tau-R3 fibrils with cA, cB and cC treatments. […] Furthermore, the misfolding of tau protein into filaments in neurons of the central nervous system can be found in various neurodegenerative diseases, such as Alzheimer's disease et al. Therefore, the inhibition on tau aggregation represented a potential of cA and its derivatives in targeting multiple other neurodegenerative diseases more than ALS.

SMILES | EC50 [1] [µM] | neuroprotective activity compared with cA [1] | binding to DNA (G4C2)4 G4 by NMR titration [2] | cytotoxicity (structure-activity summary) [1] | IC50 (Tau-R3) [µM] | also measured
CC12CC3CC(C)(C1)CC(N)(C3)C2 [memantine, reference compound] | 23.9 |  |  |  |  | 
C[C@@]1(O)Cc2cc3c(c(O)c2C(=O)O1)-c1c(c(O)c(O)c2c(=O)c4cccc(O[C@@H]5OC(C(=O)O)=C[C@H](O)[C@H]5O)c4oc12)CC3 [cF, chrexanthomycin F] |  | worse than cA | proved to bind |  |  | binding to RRM domain of hnRNP H by NMR titration (RRM domain of hnRNP H): much weaker bindings; binding affinity order according to NMR titration ([2]; DNA (G4C2)4 G-quadruplex and hnRNP H, FIGS. 3C-3E): cC>cA>cB>cF
N=C(N)c1ccc(-c2ccc(-c3ccc(-c4ccc(C(=N)N)cn4)o3)o2)nc1 [DB1246, reference compound] |  |  | strongly bound |  |  | binding to DNA (G4C2)2 G4 by NMR titration [3]: strongly bound; binding to RNA (G4C2)2 G4 by NMR titration [4]: strongly bound; binding to htel21_T18 G4 by NMR titration [5]: strongly bound; permeability (PAMPA) [6]: much worse permeability than cA, cB, cC
COc1c2c(c(OC)c3c(=O)c4cccc(O[C@@H]5O[C@H](C(=O)O)[C@@H](O)[C@H](O)[C@H]5O)c4oc13)-c1c(cc(CC(C)=O)c(C(=O)O)c1O)CC2 [cE, chrexanthomycin E] |  | worse than cA |  | showed cytotoxicity | 6.13 | 
COCCOC(=O)C1=C(C)NC(C)=C(C(=O)OC(C)C)C1c1cccc([N+](=O)[O-])c1 (stereo not drawn) [nimodipine, reference compound] | 1.14 |  |  |  |  | 
COc1c2c(c(O)c3c(=O)c4cccc(O[C@@H]5O[C@H](C(=O)O)[C@@H](O)[C@H](O)[C@H]5O)c4oc13)-c1c(cc(CC(C)=O)c(C(=O)O)c1O)CC2 [cD, chrexanthomycin D] | 53.6 | worse than cA |  | showed cytotoxicity | 4.75 | 
